Reference: patent US20190111111A1, “Treatment of Cerebral Cavernous Malformations” (The Regents of the University of California, priority 2016, published 2019)
“Also recorded” adds a separate entry of the source.

Tests used:
[1] = tested on: Krit1^ECKO BMEC; assay: ZO-1 tight junction staining in BMEC after Krit1 inactivation (immunofluorescence); format: cell-based, mouse
Method: (§1) BMEC at passages 1-3 were maintained at 37° C. in 95% air and 5% CO2 and were grown to 85% confluence and treated for 48 h with 5 μM 4-hydroxy-tamoxifen (Sigma, H7904) after which the medium was replaced with medium lacking 4-hydroxy-tamoxifen and cells were harvested after 72 hr in culture. For TSP1 and 3TSR addition experiments, after 24 h in regular medium, the 5 nM mrTSP1 (R&D systems, 7859-TH), 20 nM 3TSR, or vehicle were added. After 48 hr a second dose of TSP1, 3TSR, or vehicle were added and cells were harvested after an additional 24 h (FIG. 11a-11d).
BMEC were grown to confluence on collagen coated cover glass (Fisher Scientific, 12-545-81) and cells were fixed for 10 min at room temperature with 4% paraformaldehyde (PFA) in phosphate-buffered saline (PBS; pH 7.4) and then permeabilized with 0.5% Triton X-100 in PBS for 5 min. […]
The slides were viewed with a high-resolution SP5 confocal microscope (Leica Microsystems) and the images were captured with Leica application suite (LAS) software (Leica Microsystems). […] The quantification analysis was performed using Volocity® software on high-resolution confocal images.

[2] = tested on: Krit1^ECKO BMEC; assay: KLF2 and KLF4 mRNA in Krit1^ECKO BMEC (RT-qPCR); format: cell-based, mouse; settings: in vitro, FIG. 5d
Method: as §1
Primary BMEC, human umbilical vein endothelial cells (HUVEC) and freshly isolated brain microvasculature total RNA were isolated using Trizol reagent, according to the manufacturer's protocol (ThermoFisher). For gene expression analysis, single stranded cDNA was produced from 10 ng of total RNA of BMEC using SuperScript III First-Strand synthesis and random primers according to the manufacture's protocol (ThermoFisher). KAPPA SyberFast qPCR kit (Kapa Biosystems) and thermal cycler (CFX96 Real-Time System, Bio-Rad) were used to determine the relative levels of the genes analyzed (primer sequences not shown) according to the manufacturer's protocol. Actin mRNA levels were used as an internal control and the 2^−ΔΔCT method was used for analysis of the data. […]

Row | Molecule | ZO1 junctional staining following Krit1 inactivation ([1]; 2 μM SU5416, Krit1^ECKO BMEC, FIG. 13c) | ZO-1 at BMEC tight junctions following Krit1 inactivation ([1]; 5 nM mouse recombinant TSP1, Krit1^ECKO BMEC, FIG. 3a) | rise in KLF2 or KLF4 mRNA following Krit1 inactivation [2]
1 | Cc1cc(C)c(/C=C2\C(=O)Nc3ccccc32)[nH]1 [SU5416, reference compound] | continuous ZO1 junctional staining | – | –
2 | TSP1: mouse recombinant full length thrombospondin 1 (R&D systems, 7859-TH), a large (~450 kDa) glycoprotein | – | continuous ZO1 junctional staining; also recorded: prevented the loss of ZO-1 from BMEC tight junctions | Neither TSP1 nor 3TSR prevented
